Measured values: US9708292B2, “Cyanopyrimidine derivative” (OTSUKA PHARMACEUTICAL CO., LTD., priority 2009, dated 2017)
Structures can show the parent of a compound that is named as a salt. Where two headings read alike, the source gives them in different places. Values belong to the molecule of their own block, whether it stands above or below them.

How the values were obtained:
[1] = target: T1, adenosine A2a receptor (Human) (Homo sapiens, UniProt P29274); test: c-AMP generating action in cell expressing adenosine A2a receptor; format: cell-based
T1 construct: host or cells: HEK293
Experimental: Test 1: c-AMP Generating Action in Cell Expressing Adenosine A2a Receptor
The test was carried out as mentioned below with reference to the method disclosed in the reference (Klotz k. N. et al., Naunyn-Schmiedeberg's Arch. Pharmacol., (1998) 357, 1-9; Shryock J. C. et al., Molecular Pharmacology, (1998) 53, 886-893).
As to the cell to be used in the test, HEK293 cell expressing adenosine A2a receptor (Human) (PerkinElmer Life Sciences, Code No. RBHA2AC) was used.
As to the culture medium, Dulbecco's modified Eagles medium (DMEM) including 10% FBS (Fetal bovine serum) and 1 mM of sodium pyruvate was used.
The cell was placed on 96 well plate (1×10^5/well), and cultured overnight. After removing off the supernatant, 0.1 ml of DMEM (without FBS) containing 20 mM HEPES, 0.1 mM IBMX (3-isobutyl-1-methylxanthine) and 2 unit/mL adenosine deaminase were added to each well, and they were incubated at 37° C. for 30 minutes. Then, 0.1 ml of the culture medium containing the DMSO solution of the test compound in the predetermined concentration was added to each well, and they were incubated for additional 30 minutes. After removing off the supernatant, the cytolytic solution was added thereto to quench the reaction. The amount of c-AMP in each well was measured by using the c-AMP enzyme immunoassay (EIA) system (Amersham Biosciences, Code No. RPN225).
The same assay was repeated using CGS-21680 (2-p-carboxyethyl)phenethylamino-5′-N-ethylcarboxamidoadenosine hydrochloride, (Sigma, code C141) as a reference compound.
The amount of resultant c-AMP in the reference medium, caused by 1 μM of the reference compound, was defined to be 100%. The amount of resultant c-AMP in each test medium was measured, and the concentration producing 50% c-AMP amount was calculated based on the results of each test compound in the predetermined concentration, which is defined as EC50 value.

ciliary artery = test: Vascular relaxation of isolated ciliary artery contracted with High K+-krebs solution; design: species or system Rabbits
Experimental: Rabbits were sacrificed with an overdose of sodium pentobarbital by intravenous administration. The eyes were enucleated and ciliary arteries were isolated. Vascular rings were cut 2 mm in length from ciliary arteries and set to Danish Multi Myograph System 610M (Danish myo technology) under microscopic observation. The vessels were equilibrated in oxygenated krebs solution with 5% CO2 and 95% O2 at 37° C.
To confirm the endothelium damage of vessels, the relaxation of ciliary artery by 100 μM carbachol was tested. If relaxation by carbachol was more than 30%, the vessels whose endothelium had no damage were used for the experiments.
After ciliary artery was contracted with High K^+-krebs solution, the compound of Example 1 was serially administrated to chamber from 0.3 μM to 300 μM. The tension was measured by Myodaq ver 2.01 (Danish myo technology).

[2] = tested on: retinal ganglion cell (RGC); test: Neuroprotection: cell survival of purified retinal ganglion cells; format: cell-based, Long Evans rat; conditions: five days of culture, control = 0%, BDNF (50 ng/mL) = 100%, Mean ± SE
Experimental: This experiment was performed according to a method reported by Otori et al. (Invest Opthalmol Vis Sci. 39: 972-981, 1998).
Eyes were enucleated from 7 day old Long Evans rat. Retinas were isolated from the eyes. The retinas were dissociated by incubating with Neurobasal medium including 15 U/mL papain at 37° C. for 30 minutes. The retinal suspension was prepared.
The retinal suspension was incubated in anti-SIRP antibody (Chemicon)-coated flask at room temperature for 30 minutes. The non adherent cells were placed in anti-thy-1 antibody (Chemicon)-coated flask. The cells were incubated at room temperature for 30 minutes. Finally the adherent cells in flask were washed with Neurobasal medium. After centrifugation at 800 rpm for 5 minutes, the purified RGC was prepared. The cells were seeded on glass coverslips that had been coated with poly-L-lysine and laminin. The purified RGC were cultured in Neurobasal medium containing B27 supplement, 1 mM glutamine 50 ng/mL CNTF, 10 μM Forskolin. Culture was maintained at 37° C. in humidified atmosphere containing 5% CO2 and 95%, air. BDNF (50 ng/mL) or the compound of Example 1 at final concentration of 0 nM (control), 3 nM, 10 nM or 30 nM was administered immediately after cell seeding.
Cell survival (cell viability) was determined by counting stained RGC. Five days after culture started, RGC were stained with 1 μM Calcein-AM (Molecular probe). The number of RGC was counted using fluorescence microscope. The percentage of cell survival (cell viability) was calculated by using the counts of control group as 0%, and the counts of BDNF group as 100%.
The cell survival was calculated by using the counts of control groups as 0% and the counts of BDNF groups as 100%.

[3] = tested on: Rabbit corneal epithelium cell; test: Effect on corneal epithelium cell after UVA irradiation (neutral red uptake assay); format: cell-based; conditions: 60 min incubation, UVA 3.5 mW/cm^2 for 70 min, viability after 24 hours
Experimental: Test 2: Effect of the Compound of Example 1 to Corneal Epithelium Cell [Method]
Rabbit corneal epithelium cell (KURABO) was used as the cell for the test. To the rabbit corneal epithelium cell placed on 96 well plate was added the compound of Example 1, and the sample was incubated for 60 minutes. Then, the sample was irradiated with UVA (3.5 mW/cm^2) for 70 minutes using a solar simulator (SOL500). After that, the cell was washed with a buffer. After 24 hours, the cell viability was evaluated by the neutral red uptake assay.

[4] = HEK293 cell expressing human adenosine A2a receptor, c-AMP by 1 μM CGS-21680 defined as 100%, read-out: A2a agonistic activity (EC50)

T1 sequence (P29274 whole entry): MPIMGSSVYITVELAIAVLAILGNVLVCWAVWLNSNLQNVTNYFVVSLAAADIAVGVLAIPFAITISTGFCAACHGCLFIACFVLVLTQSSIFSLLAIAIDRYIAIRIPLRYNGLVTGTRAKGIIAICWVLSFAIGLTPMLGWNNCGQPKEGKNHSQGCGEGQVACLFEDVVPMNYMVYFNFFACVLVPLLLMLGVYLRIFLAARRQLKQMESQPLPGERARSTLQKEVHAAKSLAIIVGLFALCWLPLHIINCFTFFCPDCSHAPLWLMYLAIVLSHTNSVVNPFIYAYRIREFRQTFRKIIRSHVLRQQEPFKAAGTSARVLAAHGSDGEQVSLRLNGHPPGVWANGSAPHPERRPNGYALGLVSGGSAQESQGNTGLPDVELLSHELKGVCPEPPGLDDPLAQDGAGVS

SMILES: CC(=O)Nc1ccc(-c2nc(SCc3cccc(CCC(=O)N4CCN(CC5CCN(CCF)CC5)CC4)n3)nc(N)c2C#N)cc1 [Example 4, N-(4-(6-amino-5-cyano-2-((6-(3-(4-((1-(2-fluoroethyl)-piperidin-4-yl)methyl)piperazin-1-yl)-3-oxopropyl)pyridin-2-yl)methylthio)pyrimidin-4-yl)phenyl)acetamide]
EC50 [1]: 6.1 nM

SMILES: CC(=O)Nc1ccc(-c2nc(SCc3cccc(CCC(=O)N4CCN(CC5CCN(CCCO)CC5)CC4)n3)nc(N)c2C#N)cc1 [Example 3, N-(4-(6-amino-5-cyano-2-((6-(3-(4-((1-(3-hydroxy-propyl)piperidin-4-yl)methyl)piperazin-1-yl)-3-oxopropyl)-pyridin-2-yl)methylthio)pyrimidin-4-yl)phenyl)acetamide]
EC50 [1, 4]: 1.8 nM

SMILES: CC(=O)Nc1ccc(-c2nc(SCc3cccc(CCC(=O)N4CCN(CC5CCNCC5)CC4)n3)nc(N)c2C#N)cc1 [Example 1, N-(4-(6-amino-5-cyano-2-((6-(3-oxo-3-(4-(piperidin-4-yl-methyl)piperazin-1-yl)propyl)pyridin-2-yl)methylthio)-pyrimidin-4-yl)phenyl)acetamide trihydrochloride]
Relaxation (%) (ciliary artery; 0.3 μM): 2.6 ± 0.5%
Relaxation (%) (ciliary artery; 1 μM): 4.8 ± 1.2%
Relaxation (%) (ciliary artery; 3 μM): 7.9 ± 2.3%
Relaxation (%) (ciliary artery; 10 μM): 35.3 ± 14.4%
Relaxation (%) (ciliary artery; 30 μM): 65.6 ± 9.5%
Relaxation (%) (ciliary artery; 100 μM): 82.4 ± 3.7%
Relaxation (%) (ciliary artery; 300 μM): 90.1 ± 2.4%
EC50 (ciliary artery; Oryctolagus cuniculus, rabbit ciliary artery rings, High K+ contraction): 17000 nM
EC50 [1, 4]: 3.3 nM
Cell survival (%) ([2]; 3 nM): 10.9 ± 7.0%
Cell survival (%) ([2]; 10 nM): 46.5 ± 7.0%
Cell survival (%) ([2]; 30 nM): 41.9 ± 5.5%
cell viability ([3]; 0.25 mM): 106.3%
cell viability ([3]; 0.5 mM): 115.0%
cell viability ([3]; 1 mM): 100.7%

Now from value to molecule:

EC50 [1, 4]: 2.9 nM
SMILES: CC(=O)Nc1ccc(-c2nc(SCc3cccc(CCC(=O)N4CCN(CC5CCN(CCO)CC5)CC4)n3)nc(N)c2C#N)cc1 [Example 2, N-(4-(6-amino-5-cyano-2-((6-(3-(4-((1-(2-hydroxyethyl)-piperidin-4-yl)methyl)piperazin-1-yl)-3-oxopropyl)pyridin-2-yl)methylthio)pyrimidin-4-yl)phenyl)acetamide maleate]

EC50 [1, 4]: 8.4 nM
SMILES: COC(=O)CCN1CCC(CN2CCN(C(=O)CCc3cccc(CSc4nc(N)c(C#N)c(-c5ccc(NC(C)=O)cc5)n4)n3)CC2)CC1 [Example 5, N-(4-(6-amino-5-cyano-2-((6-(3-(4-((1-(2-methoxy-carbonylethyl)piperidin-4-yl)methyl)piperazin-1-yl)-3-oxopropyl)pyridin-2-yl)methylthio)pyrimidin-4-yl)phenyl)-acetamide]
